Data as given in publication PMC6934184, “Selective DNA-PKcs inhibition extends the therapeutic index of localized radiotherapy and chemotherapy” (The Journal of Clinical Investigation, 2019).

Target: T1, PLK3 (Homo sapiens, UniProt Q9H4B4)
T1 construct: purchased Thermo Fisher Scientific (Life Technologies) SelectScreen
Assay: SelectScreen Z'LYTE
Type: biochemical
Method in brief: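 SelectScreen broad panel; activity (Z'LYTE, Adapta) plus binding formats. ATP: Km app for CSF1R Z'LYTE; 10 for CAMK1 Adapta. Readout = % per kinase.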

T1 sequence (Q9H4B4 whole entry): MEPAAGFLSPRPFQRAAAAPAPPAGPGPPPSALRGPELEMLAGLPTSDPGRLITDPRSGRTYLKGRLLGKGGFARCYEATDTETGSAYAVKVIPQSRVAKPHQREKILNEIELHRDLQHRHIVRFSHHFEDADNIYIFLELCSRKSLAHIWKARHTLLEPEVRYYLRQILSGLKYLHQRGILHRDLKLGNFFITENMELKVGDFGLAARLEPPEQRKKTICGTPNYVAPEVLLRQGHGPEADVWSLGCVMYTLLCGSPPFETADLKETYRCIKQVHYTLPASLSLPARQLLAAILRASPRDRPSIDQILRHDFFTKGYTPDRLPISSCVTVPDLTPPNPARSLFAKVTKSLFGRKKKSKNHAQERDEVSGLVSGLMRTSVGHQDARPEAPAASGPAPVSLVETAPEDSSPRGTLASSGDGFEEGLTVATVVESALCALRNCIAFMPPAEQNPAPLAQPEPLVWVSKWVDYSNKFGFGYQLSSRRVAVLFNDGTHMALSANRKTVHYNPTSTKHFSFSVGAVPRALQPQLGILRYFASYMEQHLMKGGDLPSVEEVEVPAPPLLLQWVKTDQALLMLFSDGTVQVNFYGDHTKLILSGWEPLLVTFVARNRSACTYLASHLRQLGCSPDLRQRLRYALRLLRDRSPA

SMILES: CN(C(=O)CN1CCOCC1)c1ccc2sc3c(-c4cccc5c(=O)cc(N6CC7CCC(C6)O7)oc45)cccc3c2c1 [NU5455]
- inhibition at 1 µM: -18.2%
